Data from patent US20150011751A1, “NOVEL TRIAZINE DERIVATIVE” (CARNA BIOSCIENCES, INC., priority 2012, published 2015).

Assays:
[1] = system: intracellular BTK (pY223) in Ramos cells; experiment: cells; settings: Homo sapiens, read-out: BTK phosphorylation inhibitory activity
Experimental: (§1) The supernatant was recovered by a centrifugal operation (at 15,000 rpm for 15 minutes) and the amount of protein was quantitatively determined. The supernatant was mixed with SDS-sample buffer and the mixture was reacted at 95° C. for 5 minutes thereby modifying the protein to obtain a sample solution. […] Thereafter, the protein in the gel was transferred to a PVDF membrane, using an iBlot gel transfer system (Life Technologies Corporation).
(§2) The unreacted secondary antibody was washed with TBST buffer and reacted according to the attached protocol, using ECL Prime Western Blotting Detection System (GE Healthcare Ltd.), and then each band was detected by chemiluminescence using a CCD camera (ATTO, Light-CaptureII). The detected band was digitized by densitometry (ATTO CS Analyzer ver.3.0) and an inhibition ratio was calculated from the intensity of a band in each group on the assumption that luminescence of a band of phosphorylated BTK of the compound no-addition and IgM stimulated group is 100%, whereas, luminescence of a band of phosphorylated BTK of the compound no-addition and IgM non-stimulated group is 0%. Each band of phosphorylated BTK was corrected by the total BTK.
(§3) Thereafter, IgM (Invitrogen, H15100) diluted with the medium was added so that the final concentration becomes 10 μg/mL, followed by incubation at 37° C. for 10 minutes.
(§4) The intracellular BTK autophosphorylation inhibiting activity was indicated with the mark “***” when 70% or more, with the mark “**” when 50% or more and less than 70%, and with the mark “*” when 30% or more and less than 50%.

Dephosphorylated BTK = Dephosphorylated BTK (Homo sapiens, UniProt Q06187); experiment: Test of activity inhibition against dephosphorylated BTK (mobility shift assay)
BTK = BTK (Homo sapiens, UniProt Q06187); experiment: Test of activity inhibition against BTK (mobility shift assay, QuickScout Screening Assist MSA)
Experimental: Kinase activity was measured by a mobility shift assay (MSA) method using QuickScout Screening Assist (trademark) MSA (commercially available kit, manufactured by Carna Biosciences, Inc.). FITC-labeled SRCtide peptide supplied with the kit was used as a substrate of a kinase reaction.
The heights of the respective peaks of the isolated substrate and phosphorylated substrate were designated S and P. Those containing the assay buffer added therein in place of the enzyme solution were measured as a blank.
Inhibition ratio (%) of a test compound was calculated according to the following equation:
where A, B, and C represent P/(P+S) of a blank well, P/(P+S) of a control solution well, and P/(P+S) of a well containing the compound added therein, respectively.
IC50 value was calculated by regression analysis of the inhibition ratio and the test compound concentration (logarithm).

[2] = system: intracellular BTK (pY223) in Ramos cells; experiment: Inhibition of self-phosphorylation activity of intracellular BTK in IgM-stimulated Ramos cells (Western blot, Test Example 3-1); type: cell-based; settings: test compound 1 μM, 1 hour, IgM 10 μg/mL 10 minutes
From the text: Combinations of primary antibody and secondary antibody as well as dilute concentrations used in the present test are as follows.

[3] = system: intracellular BTK (pY223) in Ramos cells; settings: test compound 0.3 μM, 1 hour, IgM 10 μg/mL 10 minutes
Experimental: as §1, §2, §3, §4

Chain of BTK (Q06187 whole entry): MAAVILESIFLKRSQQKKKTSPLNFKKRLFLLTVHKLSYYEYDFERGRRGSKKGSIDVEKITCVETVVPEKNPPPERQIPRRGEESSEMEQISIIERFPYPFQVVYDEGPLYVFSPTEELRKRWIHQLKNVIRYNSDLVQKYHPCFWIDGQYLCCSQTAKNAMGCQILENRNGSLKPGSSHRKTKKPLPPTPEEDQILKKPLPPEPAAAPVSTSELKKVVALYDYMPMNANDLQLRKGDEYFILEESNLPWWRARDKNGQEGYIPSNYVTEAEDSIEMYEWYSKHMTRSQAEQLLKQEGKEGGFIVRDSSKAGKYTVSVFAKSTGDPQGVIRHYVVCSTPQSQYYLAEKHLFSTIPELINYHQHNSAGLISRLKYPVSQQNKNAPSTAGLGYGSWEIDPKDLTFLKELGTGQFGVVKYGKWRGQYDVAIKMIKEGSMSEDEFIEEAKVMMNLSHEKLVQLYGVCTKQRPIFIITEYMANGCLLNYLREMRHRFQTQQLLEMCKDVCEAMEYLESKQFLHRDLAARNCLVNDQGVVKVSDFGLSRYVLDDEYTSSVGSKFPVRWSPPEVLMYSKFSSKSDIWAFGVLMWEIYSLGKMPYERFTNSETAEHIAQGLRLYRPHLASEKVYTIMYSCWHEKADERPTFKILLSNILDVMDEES
Chain of Dephosphorylated BTK (Q06187 whole entry): as above

Compound: CN(C)CCCOc1ccc(Nc2nc(N)nc(-c3cccc(NC(=O)c4ccc(C(C)(C)C)cc4)c3CO)n2)cc1 [Example 70, N-{3-[4-Amino-6-({4-[3-(dimethylamino)prop-oxy]phenyl}amino)-1,3,5-triazin-2-yl]-2-(hydroxy-methyl)phenyl}-4-(tert-butyl)benzamide]
- inhibition at 0.3 µM [1]: > 70%
- IC50 (Dephosphorylated BTK): 1 nM

Compound: COc1cc(Nc2ncnc(-c3cccc(NC(=O)c4ccc(C(C)(C)C)cc4)c3C)n2)cc(OC)c1OC [Example 1, 4-(tert-Butyl)-N-(2-methyl-3-[4-[(3,4,5-trimethoxyphenyl)amino]-1,3,5-triazin-2-yl]phenyl)benzamide]
- IC50 (BTK): 10 nM
- inhibition at 0.3 µM [1]: > 70%
- BTK phosphorylation inhibition ratio [2]: 107%
- IC50 (Dephosphorylated BTK): 2.1 nM

Compound: Cn1ccc(Nc2nc(N)nc(-c3cccc(N4CCc5cc(C6CC6)cc(F)c5C4=O)c3CO)n2)c1 [Example 213, 2-(3-{4-Amino-6-[(1-meth-yl-1H-pyrrol-3-yl)amino]-1,3,5-triazin-2-yl}-2-(hydroxymethyl)phenyl)-6-cyclopropyl-8-fluoro-3,4-dihydro-isoquinolin-1(2H)-one]
- inhibition at 0.3 µM [1]: > 70%
- IC50 (Dephosphorylated BTK): 1.1 nM

Compound: Nc1nc(Nc2ccc(N3CCOCC3)cc2)nc(-c2cccc(N3CCc4cc(C5CC5)cc(F)c4C3=O)c2CO)n1 [Example 44, 2-(3-{4-Amino-6-[(4-morpholinophenyl)amino]-1,3,5-triazin-2-yl}-2-(hydroxymethyl)phenyl)-6-cycropropyl-8-fluoro-3,4-dihydroisoquinolin-1(2H)-one]
- BTK phosphorylation inhibitory activity [3]: *** (70% or more)

Compound: Cc1c(NC(=O)c2ccc(C(C)(C)C)cc2)cccc1-c1ncnc(Nc2ccc(C(=O)N3CCN(CCO)CC3)cc2)n1 [Example 10, 4-(tert-Butyl)-N-{3-[4-({4-[4-(2-hydroxyeth-yl)piperazine-1-carbo-nyl]phenyl}amino)-1,3,5-triazin-2-yl]-2-meth-ylphenyl}benzamide]
- IC50 (BTK): 12.8 nM
- IC50 (Dephosphorylated BTK): 3.2 nM

Compound: Cc1c(NC(=O)c2ccc(C(C)(C)C)cc2)cccc1-c1ncnc(Nc2ccc(C(=O)NCCN3CCOCC3)cc2)n1 [Example 8, 4-(tert-Butyl)-N-{2-meth-yl-3-[4-({4-[(2-morpho-linoethyl)carbamoyl]phenyl}amino)-1,3,5-triazin-2-yl]phenyl} benzamide]
- IC50 (BTK): 13.1 nM
- IC50 (Dephosphorylated BTK): 3.5 nM

Compound: Cc1c(NC(=O)c2ccc(C(C)(C)C)cc2)cccc1-c1ncnc(Nc2ccc(C(=O)N3CCOC(CN)C3)cc2)n1 (centres unmarked) [Example 7, N-{3-[4-({4-[2-(Amino-methyl)morpholine-4-car-bonyl]phenyl}amino)-1,3,5-triazin-2-yl]-2-methylphenyl}-4-(tert-butyl)benzamide]
- IC50 (BTK): 8.2 nM
- IC50 (Dephosphorylated BTK): 2.5 nM

Compound: Nc1nc(Nc2cnn(CC3CC3)c2)nc(-c2cccc(N3CCc4cc(C5CC5)cc(F)c4C3=O)c2CO)n1 [Example 214, 2-[3-(4-Amino-6-{[1-(cyclo-propylmethyl)-1H-pyrazol-4-yl]amino}-1,3,5-triazin-2-yl)-2-(hydroxymethyl)phenyl]-6-cyclopropyl-8-fluoro-3,4-dihydroisoquinolin-1(2H)-one]
- inhibition at 0.3 µM [1]: > 70%
- IC50 (Dephosphorylated BTK): 0.3 nM

Compound: Cc1c(NC(=O)c2ccc(C(C)(C)C)cc2)cccc1-c1nc(N)nc(Nc2ccc(C(=O)N3CCOC(CN)C3)cc2)n1 (centres unmarked) [Example 32, N-{3-[4-Amino-6-({4-[2-(aminomethyl)morpho-line-4-carbonyl]phenyl}amino)-1,3,5-triazin-2-yl]-2-methylphenyl}-4-(tert-butyl)benz-amide]
- inhibition at 0.3 µM [1]: > 70%
- IC50 (Dephosphorylated BTK): 0.8 nM

Compound: Cn1cc(Nc2nc(N)nc(-c3cccc(N4CCc5cc(C6CC6)cc(F)c5C4=O)c3CO)n2)cn1 [Example 180, 2-(3-{4-Amino-6-[(1-methyl-1H-pyrazol-4-yl)amino]-1,3,5-triazin-2-yl}-2-(hydroxymeth-yl)phenyl)-6-cyclopro-pyl-8-fluoro-3,4-dihy-droisoquinolin-1(2H)-one]
- inhibition at 0.3 µM [1]: > 70%
- IC50 (Dephosphorylated BTK): 0.7 nM

Compound: Cc1c(NC(=O)c2ccc(C(C)(C)C)cc2)cccc1-c1ncnc(Nc2ccc(C(=O)N3CCN(C)CC3)cc2)n1 [Example 4, 4-(tert-Butyl)-N-[2-methyl-3-(4-{[4-(4-methylpiperazine-1-carbonyl)phenyl]amino}-1,3,5-triazin-2-yl)phenyl]benzamide]
- IC50 (BTK): 10 nM
- IC50 (Dephosphorylated BTK): 4.2 nM

Compound: Cc1c(NC(=O)c2ccc(C(C)(C)C)cc2)cccc1-c1nc(N)nc(Nc2ccc(C(=O)N3CCOC(CO)C3)cc2)n1 (centres unmarked) [Example 30, N-{3-[4-Amino-6-({4-[2-(hydroxymethyl)morpho-line-4-carbonyl]phe-nyl}amino)-1,3,5-tria-zin-2-yl]-2-methylphe-nyl}-4-(tert-butyl)benz-amide]
- inhibition at 0.3 µM [1]: > 70%
- IC50 (Dephosphorylated BTK): 1.3 nM

Compound: Cc1c(NC(=O)c2ccc(C(C)(C)C)cc2)cccc1-c1nc(N)nc(Nc2ccc(C(=O)N3CCOCC3CO)cc2)n1 (centres unmarked) [Example 31, N-{3-[4-Amino-6-({4-[3-(hydroxymethyl)morpho-line-4-carbonyl]phe-nyl}amino)-1,3,5-tria-zin-2-yl]-2-methylphe-nyl}-4-(tert-butyl) benzamide]
- inhibition at 0.3 µM [1]: > 70%
- IC50 (Dephosphorylated BTK): 1.5 nM

Compound: Cc1c(NC(=O)c2ccc(C(C)(C)C)cc2)cccc1-c1ncnc(Nc2ccc(C(=O)N3CCC(O)CC3)cc2)n1 [Example 9, 4-(tert-Butyl)-N-[3-(4-{[4-(4-hydroxypiper-idine-1-carbonyl)phenyl]amino}-1,3,5-triazin-2-yl)-2-methylphen-yl]benzamide]
- IC50 (BTK): 12.6 nM
- IC50 (Dephosphorylated BTK): 2.1 nM

Compound: CC(C)(C)c1ccc(C(=O)Nc2cccc(-c3nc(N)nc(Nc4ccc(CO)cc4)n3)c2CO)cc1 [Example 111, N-[3-(4-Amino-6-{[4-(hydroxymethyl)phenyl]amino}-1,3,5-triazin-2-yl)-2-(hydroxymeth-yl)phenyl]-4-(tert-butyl) benzamide]
- IC50 (Dephosphorylated BTK): 1 nM

Compound: Cc1c(-c2nc(N)nc(Nc3ccc(C(=O)N4CCOCC4)cc3)n2)cccc1N1Cc2cc(C(C)(C)C)ccc2C1=O [Example 33, 2-[3-(4-Amino-6-{[4-(morpholine-4-carbonyl)phenyl]amino}-1,3,5-triazin-2-yl)-2-methylphenyl]-5-(tert-butyl)isoindolin-1-one]
- inhibition at 0.3 µM [1]: > 70%

Compound: CC(C)n1cc(Nc2nc(N)nc(-c3cccc(N4CCc5cc(C6CC6)cc(F)c5C4=O)c3CO)n2)cn1 [Example 222, 2-(3-{4-Amino-6-[(1-iso-propyl-1H-pyrazol-4-yl)amino]-1,3,5-tria-zin-2-yl}-2-(hydroxymeth-yl)phenyl)-6-cyclo-propyl-8-fluoro-3,4-di-hydroisoquinolin-1(2H)-one]
- IC50 (Dephosphorylated BTK): 0.4 nM

Compound: Nc1nc(Nc2ccc(N3CCOCC3)cc2)nc(-c2cccc(NC(=O)c3ccc4c(c3)CCC4)c2CO)n1 [Example 171, N-(3-{4-Amino-6-[(4-morpholinophenyl)amino]-1,3,5-triazin-2-yl}-2-(hydroxymethyl)phe-nyl)-2,3-dihydro-1H-indene-5-carboxamide]
- IC50 (Dephosphorylated BTK): 26 nM

Compound: Nc1nc(Nc2ccc(N3CCCC3)cc2)nc(-c2cccc(N3CCc4cc(C5CC5)cc(F)c4C3=O)c2CO)n1 [Example 244, 2-[3-(4-Amino-6-{[4-(pyr-rolidin-1-yl)phenyl]amino}-1,3,5-triazin-2-yl)-2-(hydroxymeth-yl)phenyl]-6-cyclopro-pyl-8-fluoro-3,4-dihy-droisoquinolin-1(2H)-one]
- IC50 (Dephosphorylated BTK): 4.6 nM

Compound: Nc1nc(Nc2ccc(Cn3ccnc3)cc2)nc(-c2cccc(NC(=O)c3cc4c(s3)CCCC4)c2CO)n1 [Example 133, N-{3-[4-({4-[(1H-Imida-zol-1-yl)methyl]phe-nyl}amino)-6-amino-1,3,5-triazin-2-yl]-2-(hy-droxymethyl)phenyl}-4,5,6,7-tetrahydroben-zo[b]thiophene-2-carboxamide]
- IC50 (Dephosphorylated BTK): 0.4 nM
